Where “and” joins values, the source holds several entries; their conditions need not be identical. Equal entries are not always repeated.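 Grown in 96-well plates, cells were treated for 48 hours with each compound at five concentrations. Insufficient inhibition: endpoint recorded as highest concentration tested. At the GI50, growth is halved. TGI: concentration producing complete growth inhibition.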
Columns and labels:
Assay in all cases: NCI-60 cell line screen, 48 h
CAKI-1 renal = tested on: CAKI-1 renal
HL-60(TB) leukemia = tested on: HL-60(TB) leukemia
HS 578T breast = tested on: HS 578T breast
MOLT-4 leukemia = tested on: MOLT-4 leukemia
NCI-H23 lung = tested on: NCI-H23 lung
OVCAR-3 ovarian = tested on: OVCAR-3 ovarian
RPMI-8226 leukemia = tested on: RPMI-8226 leukemia
SN12C renal = tested on: SN12C renal
T-47D breast = tested on: T-47D breast
UO-31 renal = tested on: UO-31 renal

SMILES | GI50 (CAKI-1 renal) | TGI (CAKI-1 renal) | GI50 (HL-60(TB) leukemia) | TGI (HL-60(TB) leukemia) | GI50 (HS 578T breast) | TGI (HS 578T breast) [µM] | GI50 (MOLT-4 leukemia) | TGI (MOLT-4 leukemia) [µM] | GI50 (NCI-H23 lung) | TGI (NCI-H23 lung) [µM] | GI50 (OVCAR-3 ovarian) | TGI (OVCAR-3 ovarian) | GI50 (RPMI-8226 leukemia) | TGI (RPMI-8226 leukemia) | GI50 (SN12C renal) | TGI (SN12C renal) [µM] | GI50 (T-47D breast) | TGI (T-47D breast) [µM] | GI50 (UO-31 renal) | TGI (UO-31 renal)
Cc1nc2sc(C(=O)Nc3cccc4ccccc34)c(N)c2cc1C(O)c1ccccc1 (stereo not given) | 0.0583 µM | 12 µM | 0.0376 µM | 0.194 µM | 0.0306 µM | 0.693 | 0.0796 µM | > 65.7 | 0.104 µM | 15.3 | 0.0317 µM | 0.0976 µM | 0.0595 µM | 5.74 µM | 0.0971 µM | 9.49 | 0.0527 µM | 88.6 | 0.283 µM | 14.2 µM
O=C(O)c1ccc(Oc2nccc(-c3c(-c4ccc(F)cc4)ncn3C3CCNCC3)n2)cc1 | > 25 µM | > 25 µM | > 25 µM | > 25 µM | > 25 µM | > 25 | > 25 µM | > 25 |  |  | > 25 µM | > 25 µM | > 25 µM | > 25 µM | > 25 µM | > 25 | > 25 µM | > 25 | > 25 µM | > 25 µM
NC1CCC(Nc2nc(NCc3ccc(-c4ccccc4O)nc3)c3ncn(C4CCCC4)c3n2)CC1 (stereo not given) | 0.38 µM | 2.2 µM | < 0.01 µM |  | < 0.011 µM | 1.34 | < 0.01 µM | 0.213 | 0.0214 µM | 0.0664 | 0.0288 µM | 0.0899 µM | < 0.01 µM | 0.0479 µM | 0.0149 µM | 1.38 | 0.0252 µM | 0.0791 | 0.0759 µM | 0.545 µM
C[C@]12CC[C@@H]3c4cc(-c5ccc(F)cc5)c(O)cc4CC[C@H]3[C@@H]1CC[C@@H]2O | 6.47 µM | 21.5 µM | 8.17 µM | 28.5 µM | 4.84 µM | 22.4 | 4.88 µM | 18.3 | 13.8 µM | 37.8 | 4.02 µM | 20.9 µM | 2.78 µM | 16.5 µM | 10 µM | 22.4 | 4.52 µM | 24.6 | 7.01 µM | 21.6 µM
O=C1NC(=O)C(c2ccccc2Cl)=C1Nc1cc(Cl)c(O)c(Cl)c1 | > 21.5 µM | > 25 µM | 9.75 µM | > 25 µM | 10.9 µM | > 25 | 16 µM | > 25 |  |  | 9.7 µM | 24.9 µM | > 19.4 µM | > 25 µM | > 21.5 µM | > 25 | > 15.2 µM | > 25 | > 23.4 µM | > 25 µM
C[C@@H](O)[C@H](NC(=O)N[C@@H](CC(N)=O)c1nc([C@@H](N)CO)no1)C(=O)O | > 100 µM | > 100 µM | > 100 µM | > 100 µM | > 100 µM | > 100 | > 100 µM | > 100 | > 100 µM | > 100 | > 100 µM | > 100 µM | > 100 µM | > 100 µM | > 100 µM | > 100 | > 100 µM | > 100 | > 100 µM | > 100 µM
COc1ccc(/C(COc2ccc3c(=O)c(-c4ccccc4)coc3c2)=N\O)cc1 | 1.46 µM | 7.47 µM | 0.119 µM | 2.2 µM | 3.79 µM | 44.6 | 1.08 µM | > 100 | 19.3 µM | 62.8 | 0.987 µM | 10.8 µM | 2.29 µM | > 54.2 µM | 1.65 µM | 16.4 | 6.96 µM | > 37.2 | 9.02 µM | 27.7 µM
COc1cc(N2CCC(N3CCN(C)CC3)CC2)ccc1Nc1ncnc(Nc2ccccc2S(=O)(=O)C(C)C)n1 | 3.32 µM | 13 µM | 11.7 µM | 32.2 µM | 4.2 µM | 54.5 | 5.07 µM | > 64.8 | 8.1 µM | 36.6 | 7.33 µM | 28.1 µM | 10.9 µM | 41.9 µM | 2.89 µM | 29.8 | 5.18 µM | 39.9 | 2.62 µM | 12.6 µM
CCCN(CCC)c1ccc(/C=C/c2ccc3cc(OCC)ccc3n2)cc1 | 73.3 µM | > 100 µM | 20.3 µM | > 100 µM | > 100 µM | > 100 | > 100 µM | > 100 | 36.7 µM | > 100 | > 100 µM | > 100 µM | 6.29 µM | > 100 µM | > 100 µM | > 100 | 15.9 µM | > 100 | > 100 µM | > 100 µM
C=C(CN1CCN(c2cccc(C(F)(F)F)n2)CC1)c1ccc(C(=O)Nc2ccccc2N)cc1 | 0.512 µM and 0.52 µM | > 100 µM and 25.7 µM | 0.322 µM and 0.297 µM | 1 µM and 2.13 µM | 0.448 µM and 0.194 µM |  | 0.855 µM and 0.478 µM | > 100 | 14.1 µM and 1.8 µM | > 100 | 0.258 µM and 0.261 µM | 1.12 µM and 0.982 µM | 0.534 µM and 0.277 µM | 4.19 µM and 1.33 µM | 3.79 µM and 0.797 µM | > 100 | 3.01 µM and 0.616 µM | > 100 | 2.76 µM and 0.465 µM | 72.2 µM and > 76.6 µM
CNC(=S)NC(=O)c1c(Cl)n(C(=O)OC(C)(C)C)c2ccccc12 | 21.2 µM | 69.9 µM | 79.7 µM | > 100 µM | 45.8 µM | > 100 |  |  | 53.1 µM | > 100 | 38.1 µM | > 100 µM | 20.5 µM | 68.9 µM | 72.8 µM | > 100 | 44.1 µM | > 100 | 73.8 µM | > 100 µM
c1cc(N2CCCN(c3ccc(C4=NCCCN4)cc3)CC2)ccc1C1=NCCCN1 | > 100 µM | > 100 µM | > 100 µM | > 100 µM | 77.7 µM | > 100 | > 100 µM | > 100 | > 100 µM | > 100 | > 100 µM | > 100 µM | > 100 µM | > 100 µM |  |  | > 100 µM | > 100 | > 100 µM | > 100 µM
